Results as given in the supplement of paper PMC8671470.

Legend:
Conditions in all cases: 72 h
BV-173 [1] = tested on: BV-173
Procedure, shortened: (§1)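 Seeded in RPMI 1640 at densities within the linear growth range, fifteen myeloid leukaemia cell lines were dispensed into 384-well plates with acoustically pre-printed compounds spanning five tenfold doses from 1 to 10,000 nM, in duplicate. The plates were kept for 72 h at 37 °C in 5% CO2 before luminescent ATP viability was measured and normalised to vehicle and to a positive control at 10 µM. Curves were fitted with a four-parameter log-logistic model. The IC50 was taken from those curves.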

HEL [2] = tested on: HEL
Procedure, shortened: as §1

HL-60 [3] = tested on: HL-60
Procedure, shortened: as §1

K-562 = tested on: K-562
Procedure, shortened: as §1

KCL-22 [4] = tested on: KCL-22
Procedure, shortened: as §1

KG-1 [5] = tested on: KG-1
Procedure, shortened: as §1

KU-812 [6] = tested on: KU-812
Procedure, shortened: as §1

LAMA-84 [7] = tested on: LAMA-84
Procedure, shortened: as §1

ML-2 [8] = tested on: ML-2
Procedure, shortened: as §1

MOLM-13 [9] = tested on: MOLM-13
Procedure, shortened: as §1

MV4-11 [10] = tested on: MV4-11
Procedure, shortened: as §1

Mono-Mac-6 [11] = tested on: Mono-Mac-6
Procedure, shortened: as §1

NOMO-1 [12] = tested on: NOMO-1
Procedure, shortened: as §1

SHI-1 [13] = tested on: SHI-1
Procedure, shortened: as §1

THP-1 [14] = tested on: THP-1
Procedure, shortened: as §1

BV-173 [15] = experiment: cell viability (% survival relative to DMSO control, bortezomib = 0%); higher = less cytotoxic
Procedure, shortened: (§2)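 Fifteen myeloid leukaemia cell lines were exposed to compounds at 1, 10, 100, 1000 or 10000 nM in 384-well plates for 72 h at 37 °C and 5% CO2. Viability was read by CellTiter-Glo luminescence and normalised, with vehicle as 100% and a 10 µM positive control as 0%. Values are percent survival averaged over duplicates.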

HEL [16] = experiment: as above
Procedure, shortened: as §2

HL-60 [17] = experiment: as above
Procedure, shortened: as §2

KCL-22 [18] = experiment: as above
Procedure, shortened: as §2

KG-1 [19] = experiment: as above
Procedure, shortened: as §2

KU-812 [20] = experiment: as above
Procedure, shortened: as §2

LAMA-84 [21] = experiment: as above
Procedure, shortened: as §2

ML-2 [22] = experiment: as above
Procedure, shortened: as §2

MOLM-13 [23] = experiment: as above
Procedure, shortened: as §2

MV4-11 [24] = experiment: as above
Procedure, shortened: as §2

Mono-Mac-6 [25] = experiment: as above
Procedure, shortened: as §2

NOMO-1 [26] = experiment: as above
Procedure, shortened: as §2

SHI-1 [27] = experiment: as above
Procedure, shortened: as §2

THP-1 [28] = experiment: as above
Procedure, shortened: as §2

HL-60 [29] = experiment: area under dose-response curve (viability, 1 nM-10 uM) (fraction (0-1)); higher = more sensitive
Procedure, shortened: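 In 384-well plates, the full library was rescreened in duplicate on HL-60 cells in RPMI 1640 with 10% FBS, at 1–10,000 nM in five tenfold concentrations, for 72 h at 37 °C, 5% CO2. Each run also held DMSO or 100 nM of one of three metabolic inhibitors. Viability was measured by CellTiter-Glo and normalised to DMSO wells and to wells with proteasome inhibitor, present at 10 μM. Any area under the curve comes from four-parameter log-logistic fitting with drc and PharmacoGx.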

CCCCC/C=C\C/C=C\C/C=C\C/C=C\CCCCN1C(=O)C=CC1=O [N-Arachidonylmaleimide]
Conditions | IC50 (cell viability) [µM]
BV-173 [1] | > 10
HEL [2] | > 10
HL-60 [3] | > 10
K-562 | > 10
KCL-22 [4] | > 10
KG-1 [5] | > 10
KU-812 [6] | > 10
LAMA-84 [7] | > 10
ML-2 [8] | > 10
MOLM-13 [9] | > 10
MV4-11 [10] | > 10
Mono-Mac-6 [11] | > 10
NOMO-1 [12] | > 10
SHI-1 [13] | > 10
THP-1 [14] | > 10

Conditions | area under dose-response curve, co-treatment: AZD3965 100 nM | area under dose-response curve, co-treatment: DMSO vehicle | area under dose-response curve, co-treatment: GSK2194069 100 nM | area under dose-response curve, co-treatment: pictilisib 100 nM | cell viability, 1 nM [%] | cell viability, 10 nM [%] | cell viability, 100 nM [%] | cell viability, 1000 nM [%] | cell viability, 10000 nM [%]
BV-173 [15] | – | – | – | – | 99.9 | 97.7 | 97.8 | 94.8 | 96.8
HEL [16] | – | – | – | – | 98.7 | 102 | 97.9 | 103 | 89.7
HL-60 [17] | – | – | – | – | 111 | 94.7 | 81.8 | 125 | 88.1
HL-60 [29] | < 0.0301 | < 0.0301 | < 0.0301 | < 0.0301 | – | – | – | – | –
KCL-22 [18] | – | – | – | – | 90.9 | 95.7 | 100 | 105 | 95
KG-1 [19] | – | – | – | – | 98.9 | 97.9 | 101 | 93.1 | 103
KU-812 [20] | – | – | – | – | 103 | 97.9 | 94.6 | 97.2 | 91.4
LAMA-84 [21] | – | – | – | – | 96.8 | 99.9 | 98.4 | 97.7 | 96
ML-2 [22] | – | – | – | – | 95.9 | 97.1 | 96.6 | 94.3 | 91
MOLM-13 [23] | – | – | – | – | 98.8 | 109 | 101 | 110 | 88
MV4-11 [24] | – | – | – | – | 82.1 | 97.8 | 106 | 93.2 | 95.3
Mono-Mac-6 [25] | – | – | – | – | 94 | 101 | 91.1 | 107 | 101
NOMO-1 [26] | – | – | – | – | 95.5 | 98.1 | 103 | 96.5 | 99.4
SHI-1 [27] | – | – | – | – | 100 | 102 | 96.7 | 104 | 88.9
THP-1 [28] | – | – | – | – | 102 | 99.2 | 101 | 97.7 | 96.3
